Source: US20140288110A1, “PPAR MODULATORS” (EVOLVA SA, priority 2006, published 2014)

Legend:
[1] = molecular target: T1, full-length hPPARdelta (Homo sapiens, UniProt Q03181); experiment: Transactivation assay with full length human PPAR delta; format: cell-based
T1 construct: expressed in transfected cells
T1 sequence (Q03181 1-441): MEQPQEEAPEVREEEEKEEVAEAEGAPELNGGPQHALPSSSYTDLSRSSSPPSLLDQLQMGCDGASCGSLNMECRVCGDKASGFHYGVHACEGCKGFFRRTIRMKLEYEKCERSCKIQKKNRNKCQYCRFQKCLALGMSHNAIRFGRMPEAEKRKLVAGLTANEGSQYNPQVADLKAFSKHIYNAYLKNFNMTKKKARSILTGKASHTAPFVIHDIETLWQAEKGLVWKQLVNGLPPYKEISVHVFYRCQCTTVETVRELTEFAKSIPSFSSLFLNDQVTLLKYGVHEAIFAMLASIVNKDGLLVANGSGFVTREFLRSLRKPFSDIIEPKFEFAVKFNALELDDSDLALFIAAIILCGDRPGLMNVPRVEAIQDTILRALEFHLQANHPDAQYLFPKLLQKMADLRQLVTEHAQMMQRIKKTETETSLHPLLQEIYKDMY

[2] = test system: 3T3-L1 / MEFs; experiment: Adipocyte differentiation assay, induction, Oil Red O staining; format: cell-based, mouse; details: induction assay, Oil Red O
Description: This example describes an assay for determining adipocyte differention. Compounds are tested to see whether they induce adipocyte differentiation and also to see whether they inhibit adipocyte differention.
MEFs were grown in AmnioMax basal medium (Gibco) supplemented with 7.5% Amniomax supplement C-100 (Gibco), 7.5% Fetal Bovine Serum (FBS), 2 mM Glutamine, 62.5 μg/ml penicillin and 100 μg/ml Streptomycin (growth medium). At confluence, MEFs were induced to differentiation in growth medium with the addition of 1 microM dexamethasone (Sigma) 0.5 mM isobutylmethylxanthine (Sigma), 5 microg/ml insulin (Sigma) and 10 microM test compound dissolved in DMSO or DMSO alone. Medium was subsequently renewed every 48 hrs with growth media supplemented with 5 microg/ml Insulin and ligand or DMSO.
Briefly, to test compounds as inducers of adipocyte differentiation, 3T3-L1 are grown to confluence in DMEM with 10% Calf serum (CS), typically in 24 well dishes. At 2 days post confluence (day 0), cells are induced to differentiate with DMEM supplemented with 10% fetal bovine serum (FBS), 1 μM dexamethasone and the test compound ([…], 1 and 10 microM). BRL49653 (1.0 μM dissolved in 100% Me2SO) is used as a positive control. After 48 h, the cells are re-fed with DMEM containing 10% FBS supplemented with the test compound or the positive control. From day 4, cells are grown in DMEM with 10% FBS and are changed every second day until day 8. At day 8, cells are stained with Oil Red O as described below.
Cells cultured as described above are used for Oil Red staining. Dishes are washed in PBS and cells were fixed in 3.7% paraformaldehyde for 1 h and stained with oil red O as described in (Hansen et al 1999). Oil red O solution stock solution is prepared by dissolving 0.5 g of Oil Red O (Sigma) in 100 ml of isopropanol. Oil re O working solution is prepared by diluting a stock solution with water (6:4) followed by filtration.
Table II summarizes results obtained with different analogs of DPD (SN1), “0” representing similar results to DPD, “−1” representing even less adipocyte differentiation, “+1” representing more adipocyte differentiation (both relative to DPD) and “−” meaning not assayed.

[3] = test system: 3T3-L1 preadipocytes; experiment: Glucose uptake assay; format: cell-based; parameters: dose or concentration left out as unconfirmed; details: SN1
Description: Glucose uptake assays are important to establish the suitability of a compound for the treatment of insulin resistance.
Briefly, 3T3-L1 preadipocytes are grown in 12-well plates until confluence. Cells are washed with serum-free DMEM and incubated with 1 ml of the same medium at 37° C. for 1-2 h. The cells are then washed with […] (KRP) buffer and then incubated with 0.9 ml KRP buffer at 37° C. for 30 min. Insulin is added to the cells at 0, 0.3, 1 and 3 nM final concentration and incubated for 15 min at 37° C. Glucose uptake is initiated by the addition of 0.1 ml of Krebs-Ringer phosphate (KRP) buffer supplemented with 10 mM [^3H] 2-deoxy-D-glucose (1 mCi/l). After a 10 minute incubation at 37° C., the medium is aspirated and plates washed with ice-cold PBS to terminate the induced glucose uptake. The cells are lyzed with 0.5 ml 1% Triton X-100 and radioactivity levels determined using a scintillation counter. The results are depicted in FIG. 7.

O=C(O)CC/C=C\C[C@@H]1CO[C@H](c2ccccc2Cl)O[C@@H]1c1ccccc1O (racemic) [SN1, 4-(Z)-6-(2-o-chlorophenyl-4-o-hydroxyphenyl-1,3-dioxan-cis-5-yl) hexenoic acid]
activation of full-length hPPARdelta [1]: no activation was seen
induction of adipocyte differentiation (red staining), in words [2]: very little red staining
glucose uptake compared with Avandia [3]: same level of glucose uptake
